{
  "source": "patent US20080242544A1",
  "about": "“Phytoactive Composition” (priority 2004, published 2008)",
  "data": [
    {"tested_on": "Field Pansy", "set-up": "species or system Viola avensis", "conditions": "in vivo", "values": [
      {"molecule": "Cc1cc(Cl)ccc1OCC(=O)O", "note": "[MCPA, (4-chloro-2-methylphenoxy)acetic acid]", "plant vigour of Pansy versus untreated": "more vigorous plants than untreated only plants"}
    ]},
    {"tested_on": "not given", "conditions": "Table 1, carriers; cited from earlier work", "values": [
      {"molecule": "C[C@@H]1CC[C@@H](C(C)(C)S)C(=O)C1", "note": "[(1R,4R)-8-mercapto-3-p-menthanone]", "logP(o/w)": 2.9}
    ]},
    {"tested_on": "not given", "conditions": "Table 4, no pH given; cited from earlier work", "values": [
      {"molecule": "CCN(C(=O)n1nnn(-c2ccccc2Cl)c1=O)C1CCCCC1", "note": "[Fentrazamide]", "Log P": 3.60},
      {"molecule": "CS(=O)(=O)c1ccc(C(=O)C2C(=O)CCCC2=O)c([N+](=O)[O-])c1", "note": "[Mesotrione]", "Log P": 2.2},
      {"molecule": "CCc1cccc(C)c1N(C(=O)CCl)C(C)COC", "note": "(stereo not shown) [Metolachlor]", "Log P": 3.00}
    ]},
    {"tested_on": "not given", "conditions": "Table 5, no pH given; cited from earlier work", "values": [
      {"molecule": "CCc1cccc(C)c1N(C(=O)CCl)C(C)COC", "note": "(stereo not shown) [Metolachlor]", "Log Pow": 2.9},
      {"molecule": "CCc1cccc(C)c1N(C(=O)CCl)[C@@H](C)COC", "note": "[S-metolachlor]", "Log Pow": 3.1},
      {"molecule": "O=C(O)c1cc(Oc2ccc(C(F)(F)F)cc2Cl)ccc1[N+](=O)[O-]", "note": "[acifluorfen]", "Log Pow": 4.2},
      {"molecule": "C#CCOc1cc(-n2nc3n(c2=O)CCCC3)c(Cl)cc1Cl", "note": "[azafenidin]", "Log Pow": 2.7},
      {"molecule": "Cc1ccc(C(=O)COc2c(C(=O)c3ccc(Cl)c(C)c3Cl)c(C)nn2C)cc1", "note": "[benzofenap]", "Log Pow": 4.7},
      {"molecule": "COC(=O)c1cc(Oc2ccc(Cl)cc2Cl)ccc1[N+](=O)[O-]", "note": "[bifenox]", "Log Pow": 4.5},
      {"molecule": "N#Cc1cc(Br)c(O)c(Br)c1", "note": "[bromoxynil]", "Log Pow": 2.8},
      {"molecule": "Cc1ccc(NC(=O)N(C)C)cc1Cl", "note": "[chlorotoluron]", "Log Pow": 2.5},
      {"molecule": "COC(=O)c1c(Cl)c(Cl)c(C(=O)OC)c(Cl)c1Cl", "note": "[chlorthal-dimethyl]", "Log Pow": 4.3},
      {"molecule": "CCOc1nc(F)cc2nc(S(=O)(=O)Nc3c(Cl)cccc3C(=O)OC)nn12", "note": "[cloransulam-methyl]", "Log Pow": 1.2},
      {"molecule": "CCCC(=NOCC)C1=C(O)CC(C2CCCSC2)CC1=O", "note": "(stereo not shown) [cycloxydim]", "Log Pow": 1.4},
      {"molecule": "CCOC1Oc2ccc(OS(C)(=O)=O)cc2C1(C)C", "note": "(stereo not shown) [ethofumesate]", "Log Pow": 2.7},
      {"molecule": "CN(C)C(=O)Nc1ccccc1", "note": "[fenuron]", "Log Pow": 1.4},
      {"molecule": "C[C@@H](Oc1ccc(Oc2ccc(C(F)(F)F)cn2)cc1)C(=O)O", "note": "[fluazifop-P]", "Log Pow": 3.1},
      {"molecule": "CCCCOC(=O)C(C)Oc1ccc(Oc2ccc(C(F)(F)F)cn2)cc1", "note": "(stereo not shown) [fluazifop-butyl]", "Log Pow": 4.5},
      {"molecule": "CCCCOC(=O)[C@@H](C)Oc1ccc(Oc2ccc(C(F)(F)F)cn2)cc1", "note": "[fluazifop-p-butyl]", "Log Pow": 4.5},
      {"molecule": "C#CCN1C(=O)COc2cc(F)c(N3C(=O)C4=C(CCCC4)C3=O)cc21", "note": "[flumioxazin]", "Log Pow": 1.3},
      {"molecule": "COC(=O)[C@@H](C)Oc1ccc(Oc2ncc(C(F)(F)F)cc2Cl)cc1", "note": "[haloxyfop-P-methyl]", "Log Pow": 4},
      {"molecule": "CCOCCOC(=O)C(C)Oc1ccc(Oc2ncc(C(F)(F)F)cc2Cl)cc1", "note": "(stereo not shown) [haloxyfop-etotyl]", "Log Pow": 4.3},
      {"molecule": "CC(Oc1ccc(Oc2ncc(C(F)(F)F)cc2Cl)cc1)C(=O)O", "note": "(stereo not shown) [haloxyfop]", "Log Pow": 3.4},
      {"molecule": "CC(C)C1(C)N=C(c2nc3ccccc3cc2C(=O)O)NC1=O", "note": "(stereo not shown) [imazaquin]", "Log Pow": 2.9},
      {"molecule": "CON(C)C(=O)Nc1ccc(Cl)c(Cl)c1", "note": "[linuron]", "Log Pow": 3},
      {"molecule": "CC(=O)Nc1cc(NS(=O)(=O)C(F)(F)F)c(C)cc1C", "note": "[mefluidide]", "Log Pow": 2},
      {"molecule": "Cc1nnc(-c2ccccc2)c(=O)n1N", "note": "[metamitron]", "Log Pow": 0.8},
      {"molecule": "Cc1cccc(C)c1N(Cn1cccn1)C(=O)CCl", "note": "[metazachlor]", "Log Pow": 2.1},
      {"molecule": "CON(C)C(=O)Nc1ccc(Oc2ccc3c(c2)OC(C)(OC)CC3(C)C)cc1", "note": "(stereo not shown) [metobenzuron]", "Log Pow": 6.3},
      {"molecule": "COc1ccc(NC(=O)N(C)C)cc1Cl", "note": "[metoxuron]", "Log Pow": 1.6},
      {"molecule": "CCSC(=O)N1CCCCCC1", "note": "[molinate]", "Log Pow": 2.9},
      {"molecule": "CNc1cnn(-c2cccc(C(F)(F)F)c2)c(=O)c1Cl", "note": "[norflurazon]", "Log Pow": 2.5},
      {"molecule": "CCOc1cc(Oc2ccc(C(F)(F)F)cc2Cl)ccc1[N+](=O)[O-]", "note": "[oxyfluorfen]", "Log Pow": 4.5},
      {"molecule": "CCC(CC)Nc1c([N+](=O)[O-])cc(C)c(C)c1[N+](=O)[O-]", "note": "[pendimethalin]", "Log Pow": 5.2},
      {"molecule": "CCCOCCN(C(=O)CCl)c1c(CC)cccc1CC", "note": "[pretilachlor]", "Log Pow": 4.1},
      {"molecule": "CCC(=O)Nc1ccc(Cl)c(Cl)c1", "note": "[propanil]", "Log Pow": 3.3},
      {"molecule": "CCc1cccc(C)c1N(COC(C)C)C(=O)CCl", "note": "[propisochlor]", "Log Pow": 3.5},
      {"molecule": "C#CC(C)(C)NC(=O)c1cc(Cl)cc(Cl)c1", "note": "[propyzamide]", "Log Pow": 3.2},
      {"molecule": "CCOC(=O)c1cnn(C)c1S(=O)(=O)NC(=O)Nc1nc(OC)cc(OC)n1", "note": "[pyrazosulfuron-ethyl]", "Log Pow": 1.3},
      {"molecule": "COc1cc(OC)nc(Oc2cccc(Oc3nc(OC)cc(OC)n3)c2C(=O)ON=C(c2ccccc2)c2ccccc2)n1", "note": "[pyribenzoxim]", "Log Pow": 3},
      {"molecule": "CCCCCCCCSC(=O)Oc1cc(Cl)nnc1-c1ccccc1", "note": "[pyridate]", "Log Pow": 4},
      {"molecule": "CCNc1nc(Cl)nc(NCC)n1", "note": "[simazine]", "Log Pow": 2.1},
      {"molecule": "CCNc1nc(NC(C)(C)C)nc(OC)n1", "note": "[terbumeton]", "Log Pow": 3},
      {"molecule": "CCNc1nc(Cl)nc(NC(C)(C)C)n1", "note": "[terbuthylazine]", "Log Pow": 3.2},
      {"molecule": "COc1ccsc1CN(C(=O)CCl)c1c(C)cccc1C", "note": "[thenylchlor]", "Log Pow": 3.5},
      {"molecule": "CCCN(CCC)c1c([N+](=O)[O-])cc(C(F)(F)F)cc1[N+](=O)[O-]", "note": "[trifluralin]", "Log Pow": 4.8}
    ]},
    {"tested_on": "not given", "conditions": "Table 5, pH 5; cited from earlier work", "values": [
      {"molecule": "O=C(O)COc1nc(Cl)c(Cl)cc1Cl", "note": "[triclopyr]", "Log Pow": "0.4 (pH 5)"}
    ]},
    {"tested_on": "not given", "conditions": "Table 5, pH 7; cited from earlier work", "values": [
      {"molecule": "COC(=O)c1ccccc1S(=O)(=O)NC(=O)Nc1nc(OC(F)F)cc(OC(F)F)n1", "note": "[primisulfuron-methyl]", "Log Pow": "0.2 (pH 7)"}
    ]},
    {"tested_on": "not given", "conditions": "Table 6; cited from earlier work", "values": [
      {"molecule": "N#Cc1cc(Br)c(O)c(Br)c1", "note": "[bromoxynil]", "logP": 2.8},
      {"molecule": "CCOC(=O)Cc1cccc2ccccc12", "note": "[ethyl 1-naphthylacetate]", "logP": 3.8},
      {"molecule": "O=C(OCc1ccccc1)c1sc(Cl)nc1C(F)(F)F", "note": "[flurazole]", "logP": 4.1},
      {"molecule": "CNc1cnn(-c2cccc(C(F)(F)F)c2)c(=O)c1Cl", "note": "[norflurazon]", "logP": 2.45},
      {"molecule": "CCOc1cc(Oc2ccc(C(F)(F)F)cc2Cl)ccc1[N+](=O)[O-]", "note": "[oxyfluorfen]", "logP": 4.5},
      {"molecule": "CCC(CC)Nc1c([N+](=O)[O-])cc(C)c(C)c1[N+](=O)[O-]", "note": "[pendimethalin]", "logP": 5.2}
    ]},
    {"tested_on": "not given", "conditions": "pH 1; cited from earlier work", "values": [
      {"molecule": "Cc1cc(Cl)ccc1OCC(=O)O", "note": "[MCPA, (4-chloro-2-methylphenoxy)acetic acid]", "Log Pow": "2.8 (pH 1)"},
      {"molecule": "CS(=O)(=O)NC(=O)c1cc(Oc2ccc(C(F)(F)F)cc2Cl)ccc1[N+](=O)[O-]", "note": "[fomesafen]", "Log Pow": "2.9 (pH 1)"}
    ]},
    {"tested_on": "not given", "conditions": "pH 2; cited from earlier work", "values": [
      {"molecule": "CS(=O)(=O)c1cc(Cl)ccc1C(=O)c1cnoc1C1CC1", "note": "[Isoxachlortole]", "Log P": "2.76 (pH 2)"}
    ]},
    {"tested_on": "not given", "conditions": "pH 3.9; cited from earlier work", "values": [
      {"molecule": "COC(=O)Nc1cccc(OC(=O)Nc2cccc(C)c2)c1", "note": "[phenmedipham]", "Log Pow": "3.6 (pH 3.9)"}
    ]},
    {"tested_on": "not given", "conditions": "pH 5; cited from earlier work", "values": [
      {"molecule": "COC(=O)c1ccccc1S(=O)(=O)NC(=O)Nc1nc(C)cc(C)n1", "note": "[sulfometuron-methyl]", "Log Pow": "1.2 (pH 5)"}
    ]},
    {"tested_on": "not given", "conditions": "pH 7; cited from earlier work", "values": [
      {"molecule": "CC(C)c1nn(C(=O)NC(C)(C)C)c(=O)n1N", "note": "[amicarbazone]", "Log P": "1.23 (pH 7)"},
      {"molecule": "CCc1cnc(C2=NC(C)(C(C)C)C(=O)N2)c(C(=O)O)c1", "note": "(stereo not shown) [imazethapyr]", "Log P": "1.49 (pH 7)"}
    ]},
    {"tested_on": "not given", "conditions": "pH 9; cited from earlier work", "values": [
      {"molecule": "COc1cc(OC)n2nc(S(=O)(=O)Nc3c(Cl)ccc(C)c3Cl)nc2n1", "note": "[metosulam]", "Log Pow": "3.1 (pH 9)"}
    ]}
  ]
}
